# Assay results from publication PMC8071423, “A New Pyrimidine Schiff Base with Selective Activities against Enterococcus faecalis and Gastric Adenocarcinoma” (Molecules, 2021).
# Columns and labels:
# [1] = tested on: Candida albicans ATCC 10231; experiment: Antimicrobial microdilution / modified Richards method; type: cell-based; conditions: ATCC10231; Candida albicans 10231; according to the EUCAST examination; read-out: MIC (reference agent)
# [2] = tested on: Escherichia coli ATCC 25922; experiment: as above; type: cell-based; conditions: ATCC25922; Escherichia coli 25922; according to the EUCAST examination; read-out: MIC (reference agent)
# [3] = tested on: Klebsiella pneumoniae ATCC 13883; experiment: as above; type: cell-based; conditions: ATCC13883; Klebsiella pneumoniae 13883; according to the EUCAST examination; read-out: MIC (reference agent)
# [4] = tested on: Enterococcus faecalis ATCC 29212; experiment: as above; type: cell-based; conditions: Enterococcus faecalis, ATCC29212, Enterococcus faecalis 29212; according to the EUCAST examination; read-out: MIC (reference agent)
# [5] = tested on: Staphylococcus aureus ATCC 43300; experiment: as above; type: cell-based; conditions: ATCC43300; Staphylococcus aureus 43300; according to the EUCAST examination; read-out: MIC (reference agent)
# [6] = tested on: Streptococcus pneumoniae ATCC 49619; experiment: as above; type: cell-based; conditions: ATCC49619; Streptococcus pneumoniae 49619; according to the EUCAST examination; read-out: MIC (reference agent)
# [7] = tested on: Pseudomonas aeruginosa ATCC 27853; experiment: as above; type: cell-based; conditions: ATCC27853; Pseudomonas aeruginosa 27853; according to the EUCAST examination; read-out: MIC (reference agent)
# AGS cell line = experiment: Microscopic observation of cell and nucleus morphology, Hoechst 33342; type: cell-based, human; conditions: positive control, 1 µM
# Experimental: Morphological changes and DNA fragmentation were examined with an Olympus IX53 inverted fluorescence microscope after staining with Hoechst 33342 according to the manufacturer’s recommendations Thermo Scientific (Waltham, MA, USA). Briefly, cells were seeded in 12-well plates with a density of 1 × 10^5 cell/mL. After overnight incubation, the test substance was added in a half-maximal inhibitory (IC50) concentration and incubated for 24, 48, and 72 h. Before microscopic observation, both adherent and floating cells were collected, centrifuged, resuspended in PBS containing 1 µg/mL Hoechst 33342 dye. After 10 min incubation in the dark, the morphology of cells and DNA were visualized using a contrast phase and a UV filter.
compound,measurement,setting,value
C[C@@H]1[C@H](O)[C@@H](C)/C=C/C=C/C=C/C=C/C=C/C=C/C=C/[C@H](O[C@@H]2O[C@H](C)[C@@H](O)[C@H](N)[C@@H]2O)C[C@@H]2O[C@](O)(C[C@@H](O)C[C@@H](O)[C@H](O)CC[C@@H](O)C[C@@H](O)CC(=O)O[C@H]1C)C[C@H](O)[C@H]2C(=O)O [amphotericin B],MIC,[1],1 µg/mL
CNC(C)C1CCC(N)C(OC2C(N)CC(N)C(OC3OCC(C)(O)C(NC)C3O)C2O)O1 (centres unmarked) [gentamicin],MIC,[2],2 µg/mL
C[C@H]1COc2c(N3CCN(C)CC3)c(F)cc3c(=O)c(C(=O)O)cn1c23 [levofloxacin],MIC,[3],0.5 µg/mL
same,MIC,[4],4 µg/mL
same,MIC,[5],1 µg/mL
same,MIC,[6],0.001 µg/mL
same,MIC,[7],1 µg/mL
"CN[C@@H]1C[C@H]2O[C@@](C)([C@@H]1OC)n1c3ccccc3c3c4c(c5c6ccccc6n2c5c31)C(=O)NC4 [staurosporine, reference compound]",cell and nucleus morphology,AGS cell line,Shrunken cells’ bodies and fragmented DNA
